Row | SMILES | flash point
1 | CCCCCCCCCCCCCCCCCC(=O)O [octadecanoic acid] | 196.00 °C
2 | CCCCCCCCS [octane-1-thiol] | 46.00 °C
3 | C1CCOCC1 [oxane] | -20.00 °C
4 | C1COC1 [oxetane] | -28.00 °C
5 | OCC1CO1 (centres undefined) [oxiran-2-ylmethanol] | 72.00 °C
6 | CCCCCCC(C)(C)C(=O)OCC1CO1 (centres undefined) [oxiran-2-ylmethyl 2,2-dimethyloctanoate] | 129.00 °C
7 | C=C(C)C(=O)OCC1CO1 (centres undefined) [oxiran-2-ylmethyl 2-methylprop-2-enoate] | 83.00 °C
8 | O=CC1CO1 (centres undefined) [oxirane-2-carbaldehyde] | 31.00 °C
9 | CCCCCCCCCCCCCCCCCCCCCCCCC [pentacosane] | 120.00 °C
10 | CCCCCN [pentan-1-amine] | 7.00 °C
11 | CCCC(C)=O [pentan-2-one] | 7.00 °C
12 | CCC(CC)OC(C)=O [pentan-3-yl acetate] | 33.00 °C
13 | CC(=O)CC(C)=O [pentane-2,4-dione] | 34.00 °C
14 | CCCCC#N [pentanenitrile] | 41.00 °C
15 | CCCCC(=O)O [pentanoic acid] | 89.00 °C
16 | CCCCCON=O [pentyl nitrite] | 10.00 °C
17 | c1ccc2c(c1)ccc1ccccc12 [phenanthrene] | 171.00 °C
18 | NNc1ccccc1 [phenylhydrazine] | 88.00 °C
19 | SCc1ccccc1 [phenylmethanethiol] | 70.00 °C
20 | c1ccc(COCc2ccccc2)cc1 [phenylmethoxymethylbenzene] | 135.00 °C
21 | O=C(O)c1ccccc1C(=O)O [phthalic acid] | 168.00 °C

Row | SMILES | flash point
22 | C1CCNCC1 [piperidine] | 3.00 °C
23 | C=CC(N)=O [prop-2-enamide] | 138.00 °C
24 | C=CC#N [prop-2-enenitrile] | 0.00 °C
25 | C=CCOC(C)=O [prop-2-enyl acetate] | 22.00 °C
26 | C#CCO [prop-2-yn-1-ol] | 33.00 °C
27 | CCCO [propan-1-ol] | 25.00 °C
28 | CC(=O)OC(C)C [propan-2-yl acetate] | 2.00 °C
29 | CC(C)OC(=O)Cl [propan-2-yl carbonochloridate] | 16.00 °C
30 | CC(N)CN (centres undefined) [propane-1,2-diamine] | 33.00 °C
31 | OCCCO [propane-1,3-diol] | 174.00 °C
32 | N#CCC#N [propanedinitrile] | 130.00 °C
33 | CCC#N [propanenitrile] | 2.00 °C
34 | CCC(=O)Cl [propanoyl chloride] | 12.00 °C
35 | Nc1cccnc1 [pyridin-3-amine] | 190.00 °C
36 | Nc1ccncc1 [pyridin-4-amine] | 164.00 °C
37 | c1ccncc1 [pyridine] | 20.00 °C
38 | O=C1CCCN1 [pyrrolidin-2-one] | 129.00 °C
39 | C1CCNC1 [pyrrolidine] | 3.00 °C
40 | CC(C)(C)OOC(=O)c1ccccc1 [tert-butyl benzenecarboperoxoate] | 93.00 °C
41 | C=CC(=O)OC(C)(C)C [tert-butyl prop-2-enoate] | 19.00 °C
42 | C=CCCCCCCCCCCCC [tetradec-1-ene] | 110.00 °C

Row | SMILES | flash point
43 | CCO[Si](OCC)(OCC)OCC [tetraethyl silicate] | 37.00 °C
44 | C[CH2][Pb]([CH2]C)([CH2]C)[CH2]C [tetraethylplumbane] | 93.00 °C
45 | [CH3][Pb]([CH3])([CH3])[CH3] [tetramethylplumbane] | 38.00 °C
46 | O=S1(=O)CCCC1 [thiolane 1,1-dioxide] | 166.00 °C
47 | ClC[Si](Cl)(Cl)Cl [trichloro(chloromethyl)silane] | 69.00 °C
48 | CC[Si](Cl)(Cl)Cl [trichloro(ethyl)silane] | 22.00 °C
49 | C=CC(=O)OCCCCCCCCCCCCC [tridecyl prop-2-enoate] | 132.00 °C
50 | CCOP(=O)(OCC)OCC [triethyl phosphate] | 116.00 °C
51 | CCOP(OCC)OCC [triethyl phosphite] | 46.00 °C
52 | FC(F)(F)c1ccccc1 [trifluoromethylbenzene] | 12.00 °C
53 | c1ccc(OP(Oc2ccccc2)Oc2ccccc2)cc1 [triphenyl phosphite] | 218.00 °C
54 | O.c1cc[c]([Sn]([c]2ccccc2)[c]2ccccc2)cc1 [triphenyltin;hydrate] | 400.00 °C
55 | O=P(OC(CCl)CCl)(OC(CCl)CCl)OC(CCl)CCl [tris(1,3-dichloropropan-2-yl) phosphate] | 252.00 °C
56 | CCCCOCCOP(=O)(OCCOCCCC)OCCOCCCC [tris(2-butoxyethyl) phosphate] | 224.00 °C
57 | CCCCC(CC)COP(=O)(OCC(CC)CCCC)OCC(CC)CCCC (centres undefined) [tris(2-ethylhexyl) phosphate] | 152.00 °C
58 | Cc1ccccc1OP(=O)(Oc1ccccc1C)Oc1ccccc1C [tris(2-methylphenyl) phosphate] | 225.00 °C
59 | Cc1cccc(OP(=O)(Oc2cccc(C)c2)Oc2cccc(C)c2)c1 [tris(3-methylphenyl) phosphate] | 210.00 °C
60 | CCCCSP(SCCCC)SCCCC [tris(butylsulfanyl)phosphane] | 146.00 °C
61 | CCCCCCCCCC(C)=O [undecan-2-one] | 89.00 °C
62 | CN(C)C(=S)[S-].CN(C)C(=S)[S-].[Zn+2] [zinc;N,N-dimethylcarbamodithioate] | 93.00 °C

Continued, values first:

Row | flash point | SMILES
63 | 52.00 °C | CCCCCCC(C)=O [octan-2-one]
64 | 217.00 °C | CCCCCCCCOC(=O)CCCCCCCC1OC1CCCCCCCC (centres undefined) [octyl 8-(3-octyloxiran-2-yl)octanoate]
65 | 127.00 °C | O=C1CCCCCO1 [oxepan-2-one]
66 | 13.00 °C | CCC(=O)CC [pentan-3-one]
67 | 18.00 °C | CCCCCS [pentane-1-thiol]
68 | 57.00 °C | CCCCCOC(=O)CCC [pentyl butanoate]
69 | 79.00 °C | Oc1ccccc1 [phenol]
70 | 76.00 °C | NCc1ccccc1 [phenylmethanamine]
71 | 11.00 °C | C[O-].[K+] [potassium;methanolate]
72 | 58.00 °C | C#CC(=O)O [prop-2-ynoic acid]
73 | 21.00 °C | C=C(C)C(=O)OC(C)C [propan-2-yl 2-methylprop-2-enoate]
74 | 36.00 °C | CC(C)C1CCCCC1 [propan-2-ylcyclohexane]
75 | -9.00 °C | CCC=O [propanal]
76 | 160.00 °C | OCC(O)CO [propane-1,2,3-triol]
77 | 24.00 °C | NCCCN [propane-1,3-diamine]
78 | 59.00 °C | SCCCS [propane-1,3-dithiol]

Row | flash point | SMILES
79 | -104.00 °C | CCC [propane]
80 | 182.00 °C | NC(=O)c1cccnc1 [pyridine-3-carboxamide]
81 | 193.00 °C | O=C(O)c1cccnc1 [pyridine-3-carboxylic acid]
82 | 192.00 °C | Cc1ccc(S(=O)(=O)[N-]Cl)cc1.[Na+] [sodium;chloro-(4-methylphenyl)sulfonylazanide]
83 | 260.00 °C | O=C(O)c1ccc(C(=O)O)cc1 [terephthalic acid]
84 | -1.00 °C | c1ccsc1 [thiophene]
85 | 21.00 °C | C=C[Si](Cl)(Cl)Cl [trichloro(ethenyl)silane]
86 | -9.00 °C | C[Si](Cl)(Cl)Cl [trichloro(methyl)silane]
87 | 91.00 °C | Cl[Si](Cl)(Cl)c1ccccc1 [trichloro(phenyl)silane]
88 | 37.00 °C | CCC[Si](Cl)(Cl)Cl [trichloro(propyl)silane]
89 | 155.00 °C | CCOC(=O)CC(O)(CC(=O)OCC)C(=O)OCC [triethyl 2-hydroxypropane-1,2,3-tricarboxylate]
90 | 86.00 °C | C[Si](C)(C)O[Si](C)(O[Si](C)(C)C)O[Si](C)(C)C [trimethyl-[methyl-bis(trimethylsilyloxy)silyl]oxysilane]
91 | 71.00 °C | C=CCCCCCCCCC [undec-1-ene]
92 | 109.00 °C | CCCCCCCCCCCS [undecane-1-thiol]
93 | 141.00 °C | CCCCCCCCCCCc1ccccc1 [undecylbenzene]

Remark: another data set of the same source

Row | SMILES | flash point
94 | C[C@H]1CCCC[C@H]1O (relative stereo) [cis-2-methylcyclohexanol] | 59 °C
95 | C[C@@H]1CC(=O)[C@@H](C)C1 (relative stereo) [trans-2,4-dimethylcyclopentanone] | 42 °C
96 | C[C@@H]1CC(=O)C[C@H]1C (relative stereo) [trans-3,4-dimethylcyclopentanone] | 41 °C
97 | C=C(Cl)Cl [1,1-dichloroethene] | -25 °C
98 | CCC(Cl)Cl [1,1-dichloropropane] | 7 °C
99 | CC1(C)CCCC1 [1,1-dimethylcyclopentane] | -16 °C
100 | c1ccc2c(c1)CCCC2 [1,2,3,4-tetrahydronaphthalene] | 71 °C
101 | COc1ccccc1OC [1,2-dimethoxybenzene] | 87 °C
102 | CC(O)CO (centres undefined) [1,2-propanediol] | 99 °C
103 | CC(O)CCO (centres undefined) [1,3-butanediol] | 109 °C
104 | C1=CCCC=C1 [1,3-cyclohexadiene] | -16 °C
105 | CC(Cl)CCCl (centres undefined) [1,3-dichlorobutane] | 31 °C
106 | C1COCO1 [1,3-dioxolane] | -6 °C

Next, values leading:

Row | flash point | SMILES
107 | 8 °C | C[C@H]1CCC[C@H](C)C1 (relative stereo) [trans-1,3-dimethylcyclohexane]
108 | 63 °C | Cc1cc(C)c(C)c(C)c1 [1,2,3,5-tetramethylbenzene]
109 | 72 °C | CCCc1cccc(C)c1C [1,2-dimethyl-3-propylbenzene]

Source: a flash point compilation (Sun et al. 2020)
